Experimental findings from ChEMBL document CHEMBL4507311, “Data for DCP probe A-1155463” (2021) are described below.

Data set [1] has as its target MAO-B (amine oxidase [flavin-containing] B) (Homo sapiens, UniProt P27338). Put plainly: MAO-B (h) recombinant enzyme Eurofins-Cerep enzyme and uptake assay. On the set-up: incubation time 60 min, incubation temperature 37°C, substrate/stimulus/tracer D-Luciferin derivative (4 µM). Particulars: probe D-Luciferin derivative (4 µM), compound concentration 10 uM, read-out: % Inhibition of Control Values (Mean n=2).

The target of data set [2] is Mu-type opioid receptor (Homo sapiens) (UniProt P35372). Conditions: Compound concentration 10.0 uM.
The target in data set [3] is Testis-specific serine/threonine-protein kinase 3 (Homo sapiens) (UniProt Q96PN8). Conditions: Compound concentration 1000.0 nM.
Data set [4] deals with Serine/threonine-protein kinase SBK1 (Homo sapiens) (UniProt Q52WX2). Particulars: Compound concentration 1000.0 nM.
The target of data set [5] is Melatonin receptor type 1B (Homo sapiens) (UniProt P49286). The data set can be described thus: MT2 (ML1B) (h) Eurofins-Cerep binding assay. Also noted: ligand concentration 0.05 nM. Particulars: filed as agonist, Compound concentration 10.0 uM.
Data set [6] concerns the target Translocator protein (Rattus norvegicus) (UniProt P16257). The data set can be described thus: BZD (peripheral) Eurofins-Cerep binding assay. Also noted: ligand concentration 0.2 nM. Particulars: filed as antagonist, Compound concentration 10.0 uM.
The target of data set [7] is Cyclin-dependent kinase 9 (Homo sapiens) (UniProt P50750). Particulars: Compound concentration 1000.0 nM.
In data set [8] the test system is Epidermal growth factor receptor (Homo sapiens), P00533 [UNDEFINED MUTATION]. Conditions: Compound concentration 1000.0 nM.
Data set [9] has as its target Tyrosine-protein kinase HCK (Homo sapiens) (UniProt P08631). Conditions: Compound concentration 1000.0 nM.
Another data set is filed under the species Rattus norvegicus. Put plainly: SKCa channel Eurofins-Cerep binding assay. Particulars: filed as antagonist, Compound concentration 10.0 uM. On the set-up: ligand concentration 0.007 nM.
Data set [10] addresses Rhodopsin kinase GRK7 (Homo sapiens) (UniProt Q8WTQ7). Particulars: Compound concentration 1000.0 nM.
Data set [11] concerns the target Tyrosine-protein kinase ABL1 (Homo sapiens) (UniProt P00519). Particulars: Compound concentration 1000.0 nM.
The target of data set [12] is Receptor-type tyrosine-protein kinase FLT3 (Homo sapiens) (UniProt P36888). Conditions: Compound concentration 1000.0 nM.
For data set [13], the target named is Beta-2 adrenergic receptor (Homo sapiens) (UniProt P07550). Particulars: Compound concentration 10.0 uM.
Data set [14] concerns the target Serine/threonine-protein kinase tousled-like 2 (Homo sapiens) (UniProt Q86UE8). Conditions: Compound concentration 1000.0 nM.
Data set [15] has as its target Ephrin type-B receptor 6 (Homo sapiens) (UniProt O15197). Particulars: Compound concentration 1000.0 nM.
In data set [16] the target is Ephrin type-A receptor 4 (Homo sapiens) (UniProt P54764). Conditions: Compound concentration 1000.0 nM.
The target of data set [17] is Phosphatidylinositol 4-phosphate 5-kinase type-1 gamma (Homo sapiens) (UniProt O60331). Particulars: Compound concentration 1000.0 nM.
Data set [18] concerns the target Mu-type opioid receptor (Homo sapiens) (UniProt P35372). The data set can be described thus: mu (MOP) (h) Eurofins-Cerep binding assay. Also noted: ligand concentration 0.5 nM. Conditions: filed as agonist, Compound concentration 10.0 uM.
Data set [19] concerns the target Adenosine receptor A1 (Homo sapiens) (UniProt P30542). The data set can be described thus: A1 (h) Eurofins-Cerep binding assay. On the set-up: ligand concentration 1 nM. Particulars: filed as antagonist, Compound concentration 10.0 uM.
The test system of data set [20] is Mast/stem cell growth factor receptor Kit (Homo sapiens), P10721 [V559D,T670I]. Conditions: Compound concentration 1000.0 nM.
Data set [21] concerns the target Activin receptor type-2B (Homo sapiens) (UniProt Q13705). Particulars: Compound concentration 1000.0 nM.
Data set [22] deals with Receptor-type tyrosine-protein kinase FLT3 (Homo sapiens) (UniProt P36888). Particulars: Compound concentration 1000.0 nM. The source holds these as a separate data set.
The subject of another data set is MOLT-4. The data set can be described thus: CellTiter-Glo Luminescent Cell Viability Assay (BCL-XL dependent cell line MOLT-4). It is filed as functional, cell-based. Conditions: Homo sapiens.
Data set [23] concerns the target Glutamate NMDA receptor (Rattus norvegicus) (UniProt P35439+Q00959+Q00960+Q00961+Q62645+Q8VHN2+Q9R1M7). The data set can be described thus: PCP Eurofins-Cerep binding assay. Type of data set: protein-complex assay. Also noted: ligand concentration 10 nM. Conditions: filed as antagonist, Compound concentration 10.0 uM.
Data set [24] concerns the target Ribosomal protein S6 kinase alpha-5 (Homo sapiens) (UniProt O75582). Particulars: Compound concentration 1000.0 nM.
The target in data set [25] is Serine/threonine-protein kinase SIK3 (Homo sapiens) (UniProt Q9Y2K2). Conditions: Compound concentration 1000.0 nM.
Data set [26] has as its target Serine/threonine-protein kinase Chk1 (Homo sapiens) (UniProt O14757). Particulars: Compound concentration 1000.0 nM.
In data set [27] the target is Serine/threonine-protein kinase SIK2 (Homo sapiens) (UniProt Q9H0K1). Conditions: Compound concentration 1000.0 nM.
The subject of data set [28] is Receptor-type tyrosine-protein kinase FLT3 (Homo sapiens), P36888 [UNDEFINED MUTATION]. Conditions: Compound concentration 1000.0 nM.
Data set [29] deals with Ephrin type-B receptor 4 (Homo sapiens) (UniProt P54760). Conditions: Compound concentration 1000.0 nM.
Data set [30] deals with Tyrosine-protein kinase ABL1 (Homo sapiens) (UniProt P00519). Conditions: Compound concentration 1000.0 nM. This is another data set of the same source.
Data set [31] deals with Tyrosine-protein kinase FRK (Homo sapiens) (UniProt P42685). Particulars: Compound concentration 1000.0 nM.
The target in data set [32] is Cyclin-dependent kinase 5 (Homo sapiens) (UniProt Q00535). Conditions: Compound concentration 1000.0 nM.
Data set [33] deals with Ribosomal protein S6 kinase alpha-2 (Homo sapiens) (UniProt Q15349). Conditions: Compound concentration 1000.0 nM.
Data set [34] addresses Serine/threonine-protein kinase PLK1 (Homo sapiens) (UniProt P53350). Particulars: Compound concentration 1000.0 nM.
In data set [35] the test system is Epidermal growth factor receptor (Homo sapiens), P00533 [UNDEFINED MUTATION]. Conditions: Compound concentration 1000.0 nM. This is another data set of the same source.
Data set [36] has as its target T1, 5-hydroxytryptamine receptor 2C (Homo sapiens) (UniProt P28335).
T1 sequence (whole entry): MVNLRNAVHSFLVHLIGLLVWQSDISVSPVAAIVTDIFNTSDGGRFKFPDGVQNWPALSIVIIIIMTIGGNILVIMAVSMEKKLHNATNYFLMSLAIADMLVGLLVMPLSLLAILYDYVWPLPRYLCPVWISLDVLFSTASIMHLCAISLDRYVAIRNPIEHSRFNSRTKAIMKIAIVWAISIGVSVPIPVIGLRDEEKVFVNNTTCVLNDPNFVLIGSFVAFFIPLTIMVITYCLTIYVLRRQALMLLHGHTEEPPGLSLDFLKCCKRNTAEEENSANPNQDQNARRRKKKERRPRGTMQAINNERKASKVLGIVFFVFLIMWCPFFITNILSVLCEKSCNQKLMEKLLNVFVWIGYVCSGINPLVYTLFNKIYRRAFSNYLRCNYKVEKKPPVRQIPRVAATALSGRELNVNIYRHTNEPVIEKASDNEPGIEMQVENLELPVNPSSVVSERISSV
Conditions: Compound concentration 10.0 uM.

Active and inactive are the calls of the source. The rule behind the calls is not given here.

As a reminder, the inhibition is the change of the read-out against control, counted positive when it falls. As a reminder, the residual activity is the share of the control activity or signal that is left under treatment. In general, EC50 refers to the midpoint of the concentration-response curve.

Chain of Mu-type opioid receptor (Homo sapiens) (P35372 whole entry): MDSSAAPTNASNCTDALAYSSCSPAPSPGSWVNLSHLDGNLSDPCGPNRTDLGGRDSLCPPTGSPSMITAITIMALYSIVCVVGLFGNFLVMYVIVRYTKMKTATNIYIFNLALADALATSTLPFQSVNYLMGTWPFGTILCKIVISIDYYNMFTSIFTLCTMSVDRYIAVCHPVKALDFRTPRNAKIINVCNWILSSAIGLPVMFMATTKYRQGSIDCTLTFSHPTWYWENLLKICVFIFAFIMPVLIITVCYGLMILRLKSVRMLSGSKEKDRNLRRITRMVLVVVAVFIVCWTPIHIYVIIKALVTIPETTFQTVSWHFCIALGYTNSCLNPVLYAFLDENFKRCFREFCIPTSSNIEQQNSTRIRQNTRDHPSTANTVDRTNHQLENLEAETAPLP
Chain of Translocator protein (Rattus norvegicus) (P16257 whole entry, looked up): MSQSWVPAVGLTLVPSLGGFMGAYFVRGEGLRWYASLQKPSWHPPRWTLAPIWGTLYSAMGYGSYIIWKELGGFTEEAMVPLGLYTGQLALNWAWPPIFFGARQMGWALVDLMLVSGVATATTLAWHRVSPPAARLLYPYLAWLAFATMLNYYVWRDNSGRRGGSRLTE
Chain of Tyrosine-protein kinase ABL1 (Homo sapiens) (P00519 whole entry): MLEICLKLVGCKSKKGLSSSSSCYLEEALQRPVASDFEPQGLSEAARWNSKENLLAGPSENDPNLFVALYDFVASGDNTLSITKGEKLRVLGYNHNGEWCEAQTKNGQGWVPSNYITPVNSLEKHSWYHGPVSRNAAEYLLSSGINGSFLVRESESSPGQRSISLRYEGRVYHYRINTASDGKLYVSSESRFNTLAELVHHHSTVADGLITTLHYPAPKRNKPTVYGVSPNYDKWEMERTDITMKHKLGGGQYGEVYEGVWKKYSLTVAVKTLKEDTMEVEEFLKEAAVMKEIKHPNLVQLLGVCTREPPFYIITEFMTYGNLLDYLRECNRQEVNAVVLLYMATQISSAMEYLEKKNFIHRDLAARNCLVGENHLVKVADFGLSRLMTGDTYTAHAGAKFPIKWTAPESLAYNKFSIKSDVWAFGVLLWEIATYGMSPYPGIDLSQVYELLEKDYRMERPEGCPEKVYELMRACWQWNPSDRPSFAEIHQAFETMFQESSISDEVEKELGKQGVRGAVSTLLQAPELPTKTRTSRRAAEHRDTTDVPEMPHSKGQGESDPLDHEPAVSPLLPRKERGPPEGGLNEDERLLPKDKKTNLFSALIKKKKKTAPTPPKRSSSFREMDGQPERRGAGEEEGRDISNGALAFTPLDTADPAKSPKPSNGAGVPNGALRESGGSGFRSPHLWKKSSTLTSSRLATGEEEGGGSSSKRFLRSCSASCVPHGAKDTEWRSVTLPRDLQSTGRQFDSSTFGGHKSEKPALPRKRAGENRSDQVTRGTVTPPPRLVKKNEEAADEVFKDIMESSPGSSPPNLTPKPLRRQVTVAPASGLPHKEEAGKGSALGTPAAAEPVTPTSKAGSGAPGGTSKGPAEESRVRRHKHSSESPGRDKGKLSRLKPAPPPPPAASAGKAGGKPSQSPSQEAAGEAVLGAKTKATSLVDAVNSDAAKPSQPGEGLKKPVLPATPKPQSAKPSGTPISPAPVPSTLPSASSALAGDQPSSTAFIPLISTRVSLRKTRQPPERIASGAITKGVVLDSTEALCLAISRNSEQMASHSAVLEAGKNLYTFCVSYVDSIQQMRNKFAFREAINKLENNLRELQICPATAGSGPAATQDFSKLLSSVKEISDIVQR
Chain of Epidermal growth factor receptor (Homo sapiens), P00533 [UNDEFINED MUTATION] (P00533 whole entry, looked up, change not shown): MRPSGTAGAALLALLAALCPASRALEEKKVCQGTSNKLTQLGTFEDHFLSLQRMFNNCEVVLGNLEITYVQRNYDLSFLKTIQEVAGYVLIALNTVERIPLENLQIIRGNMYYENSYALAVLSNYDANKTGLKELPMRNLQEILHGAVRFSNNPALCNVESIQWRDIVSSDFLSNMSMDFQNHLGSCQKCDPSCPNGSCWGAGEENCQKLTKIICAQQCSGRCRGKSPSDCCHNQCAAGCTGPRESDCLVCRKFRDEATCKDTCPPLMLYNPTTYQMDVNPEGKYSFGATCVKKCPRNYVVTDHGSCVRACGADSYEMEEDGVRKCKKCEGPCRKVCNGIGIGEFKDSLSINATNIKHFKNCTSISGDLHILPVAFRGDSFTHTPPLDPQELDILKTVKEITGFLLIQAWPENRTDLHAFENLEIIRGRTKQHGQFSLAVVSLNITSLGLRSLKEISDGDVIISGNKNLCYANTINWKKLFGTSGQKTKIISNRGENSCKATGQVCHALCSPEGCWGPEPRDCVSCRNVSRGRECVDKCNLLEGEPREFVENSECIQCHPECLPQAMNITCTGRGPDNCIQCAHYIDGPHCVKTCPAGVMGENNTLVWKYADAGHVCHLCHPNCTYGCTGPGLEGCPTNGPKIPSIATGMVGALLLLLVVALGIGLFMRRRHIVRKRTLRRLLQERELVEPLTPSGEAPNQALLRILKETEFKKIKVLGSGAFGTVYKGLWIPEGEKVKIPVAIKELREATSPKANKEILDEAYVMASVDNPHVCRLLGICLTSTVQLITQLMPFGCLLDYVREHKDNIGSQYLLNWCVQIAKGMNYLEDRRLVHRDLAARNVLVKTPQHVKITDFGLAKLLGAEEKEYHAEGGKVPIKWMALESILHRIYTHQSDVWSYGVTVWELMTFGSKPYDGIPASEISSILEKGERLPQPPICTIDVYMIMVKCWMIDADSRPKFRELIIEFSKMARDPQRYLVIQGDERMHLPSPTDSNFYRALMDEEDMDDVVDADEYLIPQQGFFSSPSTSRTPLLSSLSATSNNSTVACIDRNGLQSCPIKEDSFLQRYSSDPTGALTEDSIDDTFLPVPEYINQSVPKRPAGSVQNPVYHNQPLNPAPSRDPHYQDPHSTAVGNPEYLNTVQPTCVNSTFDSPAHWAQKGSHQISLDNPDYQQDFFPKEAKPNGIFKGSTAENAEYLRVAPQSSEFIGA
Chain of Adenosine receptor A1 (Homo sapiens) (P30542 whole entry): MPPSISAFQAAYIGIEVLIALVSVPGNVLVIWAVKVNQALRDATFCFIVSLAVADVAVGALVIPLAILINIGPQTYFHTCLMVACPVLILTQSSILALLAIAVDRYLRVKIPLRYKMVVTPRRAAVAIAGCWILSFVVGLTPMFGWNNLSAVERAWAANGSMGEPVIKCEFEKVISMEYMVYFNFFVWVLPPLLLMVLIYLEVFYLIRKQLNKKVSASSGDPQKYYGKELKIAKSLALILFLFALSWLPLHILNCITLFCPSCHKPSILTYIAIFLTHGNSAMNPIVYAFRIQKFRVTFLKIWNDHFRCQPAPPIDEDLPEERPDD
Chain of Melatonin receptor type 1B (Homo sapiens) (P49286 whole entry): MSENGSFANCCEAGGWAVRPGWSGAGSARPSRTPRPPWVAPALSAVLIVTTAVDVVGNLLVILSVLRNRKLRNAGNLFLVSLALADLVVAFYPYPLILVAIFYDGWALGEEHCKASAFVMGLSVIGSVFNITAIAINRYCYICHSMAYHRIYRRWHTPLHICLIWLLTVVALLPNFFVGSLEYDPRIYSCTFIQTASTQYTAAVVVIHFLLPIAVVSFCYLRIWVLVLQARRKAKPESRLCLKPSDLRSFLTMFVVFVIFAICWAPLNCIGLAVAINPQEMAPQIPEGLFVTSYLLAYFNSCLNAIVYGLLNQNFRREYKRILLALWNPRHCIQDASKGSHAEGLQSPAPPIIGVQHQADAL
Chain of MAO-B (amine oxidase [flavin-containing] B) (P27338 whole entry): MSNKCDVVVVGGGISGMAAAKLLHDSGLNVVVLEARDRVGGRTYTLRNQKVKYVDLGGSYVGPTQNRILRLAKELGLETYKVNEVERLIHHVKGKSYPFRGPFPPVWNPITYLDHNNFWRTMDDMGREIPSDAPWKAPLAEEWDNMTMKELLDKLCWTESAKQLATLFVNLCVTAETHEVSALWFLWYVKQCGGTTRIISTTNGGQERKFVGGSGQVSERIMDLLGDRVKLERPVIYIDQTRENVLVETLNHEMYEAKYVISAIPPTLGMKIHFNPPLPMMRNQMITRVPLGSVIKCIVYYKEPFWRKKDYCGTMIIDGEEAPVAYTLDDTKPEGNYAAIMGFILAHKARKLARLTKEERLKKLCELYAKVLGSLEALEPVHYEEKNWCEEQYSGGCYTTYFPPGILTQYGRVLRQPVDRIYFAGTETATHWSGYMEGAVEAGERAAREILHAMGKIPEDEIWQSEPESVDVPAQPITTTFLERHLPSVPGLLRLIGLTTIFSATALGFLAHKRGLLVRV
Chain of Testis-specific serine/threonine-protein kinase 3 (Homo sapiens) (Q96PN8 whole entry): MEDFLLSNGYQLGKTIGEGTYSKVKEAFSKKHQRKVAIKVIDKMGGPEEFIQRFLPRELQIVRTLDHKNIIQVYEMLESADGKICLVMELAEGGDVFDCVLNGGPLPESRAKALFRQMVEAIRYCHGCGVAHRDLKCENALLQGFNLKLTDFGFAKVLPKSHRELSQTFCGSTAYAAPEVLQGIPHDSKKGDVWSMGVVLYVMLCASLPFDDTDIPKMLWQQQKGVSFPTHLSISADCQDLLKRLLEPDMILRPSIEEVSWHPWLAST
Chain of Serine/threonine-protein kinase PLK1 (Homo sapiens) (P53350 whole entry): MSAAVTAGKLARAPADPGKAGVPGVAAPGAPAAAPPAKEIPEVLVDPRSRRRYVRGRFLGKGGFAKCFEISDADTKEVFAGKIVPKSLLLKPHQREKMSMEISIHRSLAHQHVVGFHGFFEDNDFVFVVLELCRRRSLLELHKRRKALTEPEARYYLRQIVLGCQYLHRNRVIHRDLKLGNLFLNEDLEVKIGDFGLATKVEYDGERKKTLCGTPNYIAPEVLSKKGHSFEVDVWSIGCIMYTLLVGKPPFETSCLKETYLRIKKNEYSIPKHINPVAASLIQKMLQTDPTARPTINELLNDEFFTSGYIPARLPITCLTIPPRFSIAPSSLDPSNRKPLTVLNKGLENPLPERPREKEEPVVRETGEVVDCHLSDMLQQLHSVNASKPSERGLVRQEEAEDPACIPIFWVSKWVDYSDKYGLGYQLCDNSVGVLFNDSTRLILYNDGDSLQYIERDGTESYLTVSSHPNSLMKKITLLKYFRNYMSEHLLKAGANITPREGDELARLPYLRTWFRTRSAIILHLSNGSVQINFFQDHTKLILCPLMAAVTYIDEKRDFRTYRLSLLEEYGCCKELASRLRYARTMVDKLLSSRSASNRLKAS

Regarding `CN(C)CC#Cc1ccc(OCCCc2sc(N3CCc4cccc(C(=O)Nc5nc6ccccc6s5)c4C3)nc2C(=O)O)c(F)c1` [A-1155463], in [1], the inhibition at 60 min, 10 µM is -2.2%. Further, the inhibition is 15.4% in data set [2], 27.1% in data set [13] and 1.97% in data set [36]. The residual activity is 84% in data set [3]; 100% in [4]; 94% in data set [7]; 94% in data set [8]; 100% in data set [9]; 97% in [10]. For the same molecule, the residual activity in [11] was 93%; in data set [12] it was 95%; in data set [14], 100%; in data set [15], 100%; in data set [16], 88%; in data set [17], 100%. Further, the residual activity in [20] is 95%; in data set [21] it was 100%; in data set [22], 80%; in [24], 90%; in [25], 77%; in data set [26] it was 89%. For the same molecule, the residual activity is 96% in [27]; 97% in data set [28]; 100% in [29]; 100% in [30]; 96% in data set [31]; 100% in [32]. The residual activity is 94% in data set [33], 100% in data set [34] and 89% in data set [35]. Further, the % Inhibition of Control Specific Binding (Mean n=2) was 20.1% in [5]; 41.3% in data set [6]; -3.7% in the data set filed under Rattus norvegicus; 36.1% in data set [18]; 60.6% in data set [19]; 7.8% in data set [23]. For the same molecule, the concentration giving a half-maximal response (EC50) in the data set with MOLT-4 is 0.214 µM (active).

For `O=C(Nc1nc2ccccc2s1)c1cccc2c1CN(c1nc(C(=O)O)c(CCOc3ccc(-n4ncc5cncnc54)cc3)s1)CC2` [A-1107969], the inhibition at 60 min, 10 µM in [1] was -2%. In addition, the % Inhibition of Control Specific Binding (Mean n=2) in [5] is 8.7%; in [6], 77.2%; in the data set filed under Rattus norvegicus, -12.2%; in data set [18], 6%; in data set [19], 7.9%; in data set [23], 2.8%. In the data set with MOLT-4, the EC50 is > 10 µM (not active).
